{
  "source": "paper PMC8482776",
  "about": "(ACS Omega, 2021)",
  "key": {"[1]": {"tested_on": "Asp. flavus (ATCC 204304)", "test": "Microdilution MIC90, strain G", "assay_type": "cell-based, Aspergillus flavus", "conditions": "filamentous fungi, 48 h at 37 °C, triplicate"}, "T. rubrum (PTCC 5143)": {"tested_on": "T. rubrum (PTCC 5143)", "test": "Microdilution MIC90, strain K", "assay_type": "cell-based, Trichophyton rubrum", "conditions": "filamentous fungi, 48 h at 37 °C, triplicate"}, "C. krusei (ATCC 6258)": {"tested_on": "C. krusei (ATCC 6258)", "test": "Microdilution MIC90, strain B", "assay_type": "cell-based", "conditions": "24 h, yeast, 24 h at 37 °C, triplicate"}, "C. glabrata (ATCC 90030)": {"tested_on": "C. glabrata (ATCC 90030)", "test": "Microdilution MIC90, strain C", "assay_type": "cell-based", "conditions": "24 h, yeast, 24 h at 37 °C, triplicate"}, "C. albicans (ATCC 10231) [2]": {"tested_on": "C. albicans (ATCC 10231)", "test": "Microdilution MIC90, strain A", "assay_type": "cell-based", "conditions": "24 h, strain A, yeast, 24 h at 37 °C, triplicate"}, "[3]": {"tested_on": "Asp. nidulans (PTCC 5014)", "test": "Microdilution MIC90, strain F", "assay_type": "cell-based, Aspergillus nidulans", "conditions": "Aspergillus nidulans, PTCC5014, 48 h, filamentous fungi, 48 h at 37 °C, triplicate"}, "Asp. niger (PTCC 5154)": {"tested_on": "Asp. niger (PTCC 5154)", "test": "Microdilution MIC90, strain I", "assay_type": "cell-based, Aspergillus niger", "conditions": "Aspergillus niger, PTCC5154, 48 h, filamentous fungi, 48 h at 37 °C, triplicate"}, "Asp. terreus (PTCC 5023)": {"tested_on": "Asp. terreus (PTCC 5023)", "test": "Microdilution MIC90, strain J", "assay_type": "cell-based, Aspergillus terreus", "conditions": "Aspergillus terreus, PTCC5023, 48 h, filamentous fungi, 48 h at 37 °C, triplicate"}, "[4]": {"tested_on": "Microsporum gypseum (PTCC 5070)", "test": "Microdilution MIC90, strain L", "assay_type": "cell-based", "conditions": "filamentous fungi, 48 h at 37 °C, triplicate"}, "[5]": {"tested_on": "C. tropicalis (PTCC 5028)", "test": "Microdilution MIC90, strain E", "assay_type": "cell-based", "conditions": "24 h"}, "[6]": {"tested_on": "Asp. fumigatus (PTCC 5009)", "test": "Microdilution MIC90, strain H", "assay_type": "cell-based", "conditions": "Aspergillus fumigatus, PTCC5009, 48 h, filamentous fungi, 48 h at 37 °C, triplicate"}, "[7]": {"tested_on": "T. mentagrophytes (PTCC 5054)", "test": "Microdilution MIC90, strain M", "assay_type": "cell-based", "conditions": "Trichophyton mentagrophytes, PTCC5054, 48 h"}, "M. canis (PTCC 5069)": {"tested_on": "M. canis (PTCC 5069)", "test": "Microdilution MIC90, strain O", "assay_type": "cell-based", "conditions": "Microsporum canis, PTCC5069, 48 h"}, "[8]": {"tested_on": "T. schoenleinii (PTCC 5221)", "test": "Microdilution MIC90, strain N", "assay_type": "cell-based", "conditions": "Trichophyton schoenleinii, PTCC5221, 48 h"}, "[9]": {"tested_on": "C. parapsilosis (ATCC 22019)", "test": "Microdilution MIC90, strain D", "assay_type": "cell-based", "conditions": "24 h"}, "[10]": {"tested_on": "FLC-resistant clinical Candida isolate R5 (C. albicans)", "test": "PMIC90, FLC-resistant isolate R5", "assay_type": "cell-based", "conditions": "strain R5, planktonic"}, "C. albicans (ATCC 10231) [11]": {"tested_on": "C. albicans (ATCC 10231)", "test": "Murine model of systemic candidiasis", "assay_type": "in vivo", "conditions": "neutropenic mice (n = 5), 15 mg/kg oral gavage, left kidney tissue"}, "[12]": {"tested_on": "dermatophyte isolates K–O", "test": "Microdilution MIC, dermatophyte isolates K–O", "assay_type": "cell-based"}, "C. albicans (ATCC 10231) [13]": {"tested_on": "C. albicans (ATCC 10231)", "test": "Time-kill assay", "assay_type": "cell-based", "conditions": "[…]; 64 μg/mL for FLC), 24 h period"}, "[14]": {"tested_on": "FLC-resistant clinical Candida isolate R7 (C. glabrata)", "test": "PMIC90, FLC-resistant isolate R7", "assay_type": "cell-based", "conditions": "strain R7, planktonic"}, "[15]": {"tested_on": "FLC-resistant clinical Candida isolate R4 (C. albicans)", "test": "PMIC90, FLC-resistant isolate R4", "assay_type": "cell-based", "conditions": "strain R4, planktonic"}, "[16]": {"tested_on": "FLC-resistant clinical Candida isolates (R1–R7)", "test": "PMIC, seven FLC-resistant clinical Candida isolates", "assay_type": "cell-based", "conditions": "read-out: MIC (growth inhibition concentrations)"}, "[17]": {"tested_on": "FLC-resistant clinical Candida isolate R3 (C. albicans)", "test": "PMIC90, FLC-resistant isolate R3", "assay_type": "cell-based", "conditions": "strain R3, planktonic"}, "[18]": {"tested_on": "FLC-resistant clinical Candida isolate R6 (C. albicans)", "test": "PMIC90, FLC-resistant isolate R6", "assay_type": "cell-based", "conditions": "strain R6, planktonic"}, "[19]": {"tested_on": "FLC-resistant clinical Candida isolate R2 (C. albicans)", "test": "PMIC90, FLC-resistant isolate R2", "assay_type": "cell-based", "conditions": "strain R2, planktonic"}, "[20]": {"tested_on": "FLC-resistant clinical Candida isolate R1 (C. albicans)", "test": "PMIC90, FLC-resistant isolate R1", "assay_type": "cell-based", "conditions": "strain R1, planktonic"}, "[21]": {"tested_on": "human red blood cells (hRBCs)", "test": "Hemolysis assay", "assay_type": "cell-based", "conditions": "positive control, 2 h at 37 °C"}, "[22]": {"conditions": "Aspergillus flavus, ATCC204304, 48 h"}, "[23]": {"conditions": "Trichophyton rubrum, PTCC5143, 48 h"}},
  "note": "“And” between values parts separate entries of the source, which are not always exact repeats. Identical values can stand only once.",
  "data": [
    {"molecule": "Cc1ccc(NC(=O)Nc2nnc(SCC(O)(Cn3cncn3)c3ccc(F)cc3F)s2)cc1Cl", "note": "(stereo not shown) [Compound 8r, 1-(3-Chloro-4-methylphenyl)-3-(5-((2-(2,4-difluorophenyl)-2-hydroxy-3-(1H-1,2,4-triazol-1-yl)propyl)thio)-1,3,4-thiadiazol-2-yl)urea]", "values": [
      {"measurement": "MIC90", "setting": "[1]; [22]", "value": "2 to 4", "unit": "µg/mL"},
      {"measurement": "MIC90", "setting": "[1]", "value": 4, "unit": "μg·mL^–1"},
      {"measurement": "MIC90", "setting": "T. rubrum (PTCC 5143); [23]", "value": "2 to 4", "unit": "µg/mL"},
      {"measurement": "MIC90", "setting": "T. rubrum (PTCC 5143)", "value": 4, "unit": "μg·mL^–1"},
      {"measurement": "MIC90", "setting": "C. krusei (ATCC 6258)", "value": 32, "unit": "µg/mL"},
      {"measurement": "MIC90", "setting": "C. glabrata (ATCC 90030)", "value": 32, "unit": "µg/mL"},
      {"measurement": "MIC90", "setting": "C. albicans (ATCC 10231) [2]", "value": 64, "unit": "µg/mL"},
      {"measurement": "MIC90", "setting": "[3]", "value": 8, "unit": "µg/mL"},
      {"measurement": "MIC90", "setting": "Asp. niger (PTCC 5154)", "value": 32, "unit": "µg/mL"},
      {"measurement": "MIC90", "setting": "Asp. terreus (PTCC 5023)", "value": 16, "unit": "µg/mL"},
      {"measurement": "MIC90", "setting": "[4]", "value": 4, "unit": "μg·mL^–1"},
      {"measurement": "MIC90", "setting": "[5]", "value": 64, "unit": "µg/mL"},
      {"measurement": "MIC90", "setting": "[6]", "value": 32, "unit": "µg/mL"},
      {"measurement": "MIC90", "setting": "[7]", "value": 16, "unit": "µg/mL"},
      {"measurement": "MIC90", "setting": "M. canis (PTCC 5069)", "value": 32, "unit": "µg/mL"},
      {"measurement": "MIC90", "setting": "[8]", "value": 32, "unit": "µg/mL"},
      {"measurement": "MIC90", "setting": "[9]", "value": 16, "unit": "µg/mL"}
    ]},
    {"molecule": "OC(Cn1cncn1)(Cn1cncn1)c1ccc(F)cc1F", "note": "[FLC, Fluconazole, reference compound]", "values": [
      {"measurement": "MIC90", "setting": "[1]; [22]", "value": 2, "unit": "µg/mL"},
      {"measurement": "MIC90", "setting": "T. rubrum (PTCC 5143); [23]", "value": 1, "unit": "µg/mL"},
      {"measurement": "MIC90", "setting": "C. krusei (ATCC 6258)", "value": 16, "unit": "µg/mL"},
      {"measurement": "PMIC90", "setting": "[10]", "value": ">64", "unit": "µg/mL"},
      {"measurement": "MIC90", "setting": "C. glabrata (ATCC 90030)", "value": 16, "unit": "µg/mL"},
      {"measurement": "MIC90", "setting": "C. albicans (ATCC 10231) [2]", "value": 16, "unit": "µg/mL"},
      {"measurement": "kidney fungal burden, CFU/g (mean ± SD)", "setting": "C. albicans (ATCC 10231) [11]", "value": "512 CFU/g and 512 ± 63.5 ^b CFU/g"},
      {"measurement": "MIC", "setting": "[12]", "value": "1 to 4", "unit": "µg/mL"},
      {"measurement": "MIC90", "setting": "Asp. niger (PTCC 5154)", "value": 4, "unit": "µg/mL"},
      {"measurement": "MIC90", "setting": "Asp. terreus (PTCC 5023)", "value": 4, "unit": "µg/mL"},
      {"measurement": "time-kill effect at 4 × MIC", "setting": "C. albicans (ATCC 10231) [13]", "value": "no significant effect"},
      {"measurement": "PMIC90", "setting": "[14]", "value": ">64", "unit": "µg/mL"},
      {"measurement": "MIC90", "setting": "[5]", "value": 4, "unit": "µg/mL"},
      {"measurement": "MIC90", "setting": "[6]", "value": 4, "unit": "µg/mL"},
      {"measurement": "MIC90", "setting": "[7]", "value": 4, "unit": "µg/mL"},
      {"measurement": "MIC90", "setting": "M. canis (PTCC 5069)", "value": 1, "unit": "µg/mL"},
      {"measurement": "PMIC90", "setting": "[15]", "value": ">64", "unit": "µg/mL"},
      {"measurement": "MIC90", "setting": "[8]", "value": 2, "unit": "µg/mL"},
      {"measurement": "MIC", "setting": "[16]", "value": "≥ 64", "unit": "µg/mL"},
      {"measurement": "PMIC90", "setting": "[17]", "value": ">64", "unit": "µg/mL"},
      {"measurement": "PMIC90", "setting": "[18]", "value": ">64", "unit": "µg/mL"},
      {"measurement": "PMIC90", "setting": "[19]", "value": ">64", "unit": "µg/mL"},
      {"measurement": "PMIC90", "setting": "[20]", "value": ">64", "unit": "µg/mL"},
      {"measurement": "MIC90", "setting": "[9]", "value": 4, "unit": "µg/mL"}
    ]},
    {"molecule": "C[C@@H](c1ncncc1F)[C@](O)(Cn1cncn1)c1ccc(F)cc1F", "note": "[VOR, voriconazole, reference compound]", "values": [
      {"measurement": "kidney fungal burden, CFU/g (mean ± SD)", "setting": "C. albicans (ATCC 10231) [11]", "value": "318 CFU/g and 318 ± 66.5 ^b CFU/g"}
    ]},
    {"molecule": "Triton X-100 [reference compound]", "values": [
      {"measurement": "hemolysis", "setting": "[21]", "value": 86.2, "unit": "%"}
    ]}
  ]
}
